Laboratory results as given in patent US11021500B2, “Process for preparing optically active 2,3-bisphosphino-substituted quinoxalines” (Nippon Chemical Industrial Co., Ltd., priority 2017, dated 2021).

melting point: 102 to 103 °C
SMILES: C[P@@](c1nc2ccccc2nc1[P@](C)C(C)(C)C)C(C)(C)C [Compound (a3), (R,R)-2,3-bis(tert-butylmethylphosphino)quinoxaline]
